Assay in all cases: DTP human tumour cell line panel, 48 h
Assay [1] has as its system 786-0 renal.
Assay [2] deals with A498 renal.
Assay [3] concerns HT29 colon.
Assay [4] relates to LOX IMVI melanoma.
In assay [5] the test system is MCF7 breast.
The subject of assay [6] is MDA-MB-231 breast.
Assay [7] relates to MOLT-4 leukemia.
Assay [8] deals with PC-3 prostate.
Assay [9] relates to SN12C renal.
For assay [10], the system named is HCT-15 colon.
The subject of assay [11] is M14 melanoma.

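Interpolation was linear, between the two tested concentrations surrounding the appropriate level; five concentrations were tested over 48 hours in 96-well plates. TGI denotes the concentration required for complete inhibition of growth.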

Take `COC(=O)C1(Cc2ccc3c(c2)CCC3)Cc2ccc3c(c2C1O)CCC3` (stereo unspecified): the concentration for total growth inhibition (TGI) in assay [1] was 28.6 µM; in assay [2], 25.1 µM; in [3] it was 31.6 µM; in [4] it was 26.2 µM; in assay [5] it was 26.9 µM; in assay [6] it was 29.4 µM. In addition, the TGI in [7] is more than 100 µM; in [8], 32.3 µM; in assay [9], 28.5 µM.

For `N#CCCN(CCC#N)c1ccc(C(N=Nc2ccccc2)=Nc2ccccc2)cc1`, the TGI in [1], in assay [2], in assay [10], in assay [3], in assay [11] and in [5] was more than 100 µM in each case. The TGI in assay [6], in assay [7], in assay [8] and in assay [9] was more than 100 µM each time.

Take `Clc1ccc(Oc2ccc(N=Cc3ccc(Cl)cc3Cl)cc2Cl)cc1`: the total growth inhibition concentration (TGI) in assay [1] was 63.5 µM; in assay [10] it was more than 100 µM; in assay [3] it was more than 100 µM; in [4], more than 100 µM; in assay [11] it was 68 µM; in assay [5], more than 100 µM. Moreover, the TGI in [6], in [7], in assay [8] and in assay [9] was more than 100 µM throughout.

Turning to `CCCc1c(OC)c(=O)c2c(OC)cc(OC)c3c4c(OC)cc(OC)c5c(=O)c(OC)c(CCC)c(c1c23)c54`, the TGI was determined as 26.7 µM in [1]; 37.1 µM in assay [2]; 27.9 µM in assay [10]; 24.1 µM in assay [3]; 23.1 µM in assay [4]; 30.6 µM in assay [11]. Moreover, the concentration for total growth inhibition (TGI) was 46.6 µM in assay [5], 18.3 µM in [6], 35 µM in assay [7] and 50.4 µM in assay [9].

In the case of `O=c1oc2ccccc2c(O)c1C(c1ccco1)c1c(O)c2ccccc2oc1=O`, the TGI in assay [1] was 55.5 µM; in assay [2], more than 100 µM; in assay [10], 41.4 µM; in assay [3], more than 100 µM; in assay [4] it was 61.1 µM; in assay [6], 36 µM. The TGI was 62.1 µM in assay [7], more than 100 µM in assay [8] and 63.1 µM in assay [9].

On to `Cc1cccc2c1Oc1cc(Cl)ccc1C2NC(=O)CCN1CCN(CCO)CC1` (stereo unspecified), for which the TGI in [1] is 26.5 µM; in assay [10], 34.1 µM; in [3], 29.8 µM; in [4], 9.7 µM; in assay [11], 30.3 µM; in assay [5], 30.3 µM. Further, the TGI in assay [6] worked out at 14.6 µM; in assay [7] it was 38.9 µM; in [8] it was 28.1 µM; in [9], 28.7 µM.

Regarding `CC1(c2nc3cc(Cl)c(Cl)cc3[nH]2)CCC(CO)C(C)(C)O1` (stereo unspecified), the TGI in assay [1] was more than 100 µM; in assay [10], more than 100 µM; in assay [3], 34.2 µM; in [4] it was more than 100 µM; in assay [11], 92.5 µM; in assay [5], more than 100 µM. Besides, the TGI in assay [6] was 77.6 µM; in assay [7], more than 100 µM; in assay [8], 97.3 µM; in assay [9] it was more than 100 µM.

Take `CC1(C23CC4CC(CC(C4)C2)C3)n2c(=O)n(-c3ccccc3)c(=O)n2C1(C)C12CC3CC(CC(C3)C1)C2` (stereo unspecified): the TGI in assay [2], in assay [10], in assay [3], in [11], in assay [5] and in [6] was more than 100 µM each time. Further, the concentration for total growth inhibition (TGI) in assay [7], in [8] and in [9] was more than 100 µM in each case.

On to `O=c1cc(N2CCOCC2)[nH]c(=O)n1-c1cccc(C(F)(F)F)c1`, for which the total growth inhibition concentration (TGI) in assay [1], in assay [2], in [10], in [3], in assay [4] and in assay [11] was more than 100 µM throughout. In addition, the TGI in assay [5] was more than 100 µM; in [6], 57 µM; in assay [7], more than 100 µM; in [9] it was more than 100 µM.

In the case of `CC(OC(=O)NCn1cc(-c2ccccc2)nn1)c1ccccc1` (stereo unspecified), the TGI was more than 100 µM in assay [1]; more than 100 µM in assay [10]; more than 100 µM in assay [3]; more than 100 µM in assay [4]; 34.9 µM in [11]; more than 100 µM in [5]. The TGI in assay [6] is more than 100 µM; in assay [7] it was 47.4 µM; in assay [8] it was 5.23 µM; in assay [9] it was more than 100 µM.

As to `O=C1CCC[C@]2(CCC[C@@H](O)C2)N1`, the TGI in [1], in [10], in assay [3], in assay [4], in assay [11] and in [5] was more than 100 µM in each case. Moreover, the TGI in [6], in assay [8] and in assay [9] was more than 100 µM each time.

On to `COc1nc(SC)nc2c1cnn2C1OC(C(O)CO)C(OC)C1O` (stereo unspecified), for which the TGI in assay [2] was more than 100 µM; in assay [10], more than 100 µM; in assay [3], more than 100 µM; in [4] it was more than 100 µM; in assay [5], more than 100 µM; in assay [7], 69 µM. The molecule further yielded a TGI in assay [9] of more than 100 µM.

With `Nc1nc(SCCNC(=O)CCc2ccc(O)cc2)nc2c1ncn2C1OC(CO)C(O)C1O` (stereo unspecified), the TGI in [1], in assay [2], in assay [10], in assay [3], in assay [4] and in assay [11] was more than 203 µM in each case. The TGI in [7] and in [9] was more than 203 µM throughout.

Consider `Cn1c(=O)cc(NCc2ccc(Cl)cc2)[nH]c1=O`, for which the TGI in [1], in [2], in [10], in assay [3], in assay [4] and in assay [11] was more than 100 µM in each case. Moreover, the TGI in assay [5], in assay [6], in assay [8] and in [9] was more than 100 µM each time.

(Values after PubChem BioAssay (NCI).)
